Laboratory results published in article PMC7549094 (Journal of Medicinal Chemistry, 2020).

Legend:
L. major = assay: BALB/c mouse lesion cure model of Old World cutaneous leishmaniasis; type: in vivo; conditions: BALB/c mice infected with L. major; 20 mg/kg b.i.d. PO, 10 days
Description: Data in the graph show progression of lesion sizes at the base of the tail of BALB/c mice infected with 1 × 10^7L. major parasites after 10 days of treatment. Experimental time points represent the mean lesion sizes ± SEM (n = 6). Single-factor ANOVA (Dunnet’s test) was used to determine the statistical significance of differences in lesion sizes between vehicle and compound-treated groups (P < 0.05).
Lesion cure model of Old World leishmaniasis (L. major). Female BALB/c mice (6 weeks old) were
used in this model. Mice were infected intradermally at base of the tail with 100 µl parasite culture
containing 1x107 L. major MHOM/IR/-/173 stationary phase promastigotes. Starting from the third week
post-infection, the lesion induration diameters (length=D1 and width=D2) were measured using a caliper
instrument (Fisher Scientific, USA) with 0.1 mm sensitivity. Length and width measurements were taken to account for asymmetrical lesions. Lesion size area was then calculated using the πR1*R2 formula
(where R1=D1/2 and R2 = D2/2). Lesions were measured at a 10 -day (+/- 2 days) interval until the end
of the study. Experimental endpoint is lesion cure or % lesion size re duction relative to lesion size in
vehicle-treated group. Lesion cure is considered 100% re-epithelialization of the lesion (lesion size = 0
10 mg/kg and 20 mg/kg twice-daily). In a positive control treatment group, animals were dosed by […]

in vitro AMES = type: cell-based
[1] = metabolite profile in rat hepatocytes; type: in vitro ADME; conditions: 10 μM of 1 for 4 h, UV 250 nm, normalized to largest peak
[2] = metabolite profile in human hepatocytes; type: in vitro ADME; conditions: 10 μM of 1 for 4 h, UV 250 nm, normalized to largest peak
human CYP2D6 = human CYP2D6 (Homo sapiens, UniProt P10635); conditions: human recombinant CYP; 1 µM, 30 min
human CYP2D6, sequence (P10635 whole entry): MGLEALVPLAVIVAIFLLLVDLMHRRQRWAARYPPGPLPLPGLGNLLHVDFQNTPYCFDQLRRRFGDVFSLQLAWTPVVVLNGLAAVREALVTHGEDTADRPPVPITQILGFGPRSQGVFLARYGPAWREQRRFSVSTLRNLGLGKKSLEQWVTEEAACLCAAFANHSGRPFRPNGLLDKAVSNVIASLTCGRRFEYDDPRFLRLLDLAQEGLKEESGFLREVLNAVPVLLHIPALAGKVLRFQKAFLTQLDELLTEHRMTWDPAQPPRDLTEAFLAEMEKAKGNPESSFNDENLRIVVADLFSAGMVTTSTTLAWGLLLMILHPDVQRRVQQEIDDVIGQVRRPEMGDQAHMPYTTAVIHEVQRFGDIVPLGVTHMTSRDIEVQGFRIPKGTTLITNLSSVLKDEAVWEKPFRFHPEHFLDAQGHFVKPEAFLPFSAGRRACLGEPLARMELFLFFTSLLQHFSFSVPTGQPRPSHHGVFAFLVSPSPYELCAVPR

hr Beta1 = hr Beta1 (Homo sapiens, UniProt P08588); assay: receptor profile (Table S4); type: binding
hr Beta1, sequence (P08588 whole entry): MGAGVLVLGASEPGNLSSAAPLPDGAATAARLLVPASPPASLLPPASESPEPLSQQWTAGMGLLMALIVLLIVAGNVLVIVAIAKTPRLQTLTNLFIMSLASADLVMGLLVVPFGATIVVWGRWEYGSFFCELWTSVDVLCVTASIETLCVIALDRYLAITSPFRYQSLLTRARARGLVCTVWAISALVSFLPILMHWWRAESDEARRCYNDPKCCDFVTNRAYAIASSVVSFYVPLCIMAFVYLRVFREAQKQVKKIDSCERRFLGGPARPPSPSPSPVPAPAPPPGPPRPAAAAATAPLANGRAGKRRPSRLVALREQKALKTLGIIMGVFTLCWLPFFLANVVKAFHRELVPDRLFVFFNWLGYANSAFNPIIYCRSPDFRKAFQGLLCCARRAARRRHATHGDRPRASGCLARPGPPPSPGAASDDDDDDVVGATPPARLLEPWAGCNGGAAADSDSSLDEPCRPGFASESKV

hr AT1 = target: T1, hr AT1 (Homo sapiens, UniProt P30556); assay: receptor profile (Table S4); type: binding
T1 sequence (P30556 1-359): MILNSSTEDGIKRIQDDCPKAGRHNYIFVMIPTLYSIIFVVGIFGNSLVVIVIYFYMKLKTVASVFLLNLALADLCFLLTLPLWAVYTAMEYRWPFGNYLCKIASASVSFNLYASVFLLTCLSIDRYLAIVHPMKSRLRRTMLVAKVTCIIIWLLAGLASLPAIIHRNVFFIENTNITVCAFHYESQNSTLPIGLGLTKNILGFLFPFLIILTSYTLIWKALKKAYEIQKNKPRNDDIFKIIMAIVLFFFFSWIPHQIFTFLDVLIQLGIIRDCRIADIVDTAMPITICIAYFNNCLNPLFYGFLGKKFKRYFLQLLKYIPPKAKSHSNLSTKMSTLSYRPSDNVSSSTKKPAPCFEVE

hr CB1 antag = hr CB1 antag (Homo sapiens, UniProt P21554); assay: receptor profile (Table S4); type: biochemical
hr CB1 antag, sequence (P21554 whole entry): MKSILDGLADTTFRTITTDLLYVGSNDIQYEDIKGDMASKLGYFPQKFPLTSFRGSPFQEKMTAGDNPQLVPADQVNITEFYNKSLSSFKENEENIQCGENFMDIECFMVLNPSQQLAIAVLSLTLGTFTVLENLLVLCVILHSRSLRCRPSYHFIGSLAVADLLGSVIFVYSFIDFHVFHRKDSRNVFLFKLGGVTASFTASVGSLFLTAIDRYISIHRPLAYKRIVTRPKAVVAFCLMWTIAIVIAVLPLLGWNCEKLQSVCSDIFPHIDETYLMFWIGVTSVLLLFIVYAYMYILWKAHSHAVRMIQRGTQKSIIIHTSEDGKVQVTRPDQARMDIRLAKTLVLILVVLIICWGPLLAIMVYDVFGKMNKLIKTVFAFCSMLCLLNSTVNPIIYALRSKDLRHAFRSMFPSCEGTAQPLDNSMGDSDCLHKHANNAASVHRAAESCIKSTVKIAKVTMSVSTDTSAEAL

hr 5-HT3 = target: T2, hr 5-HT3 (Homo sapiens, UniProt P46098); assay: receptor profile (Table S4); type: binding
T2 sequence (P46098 24-478): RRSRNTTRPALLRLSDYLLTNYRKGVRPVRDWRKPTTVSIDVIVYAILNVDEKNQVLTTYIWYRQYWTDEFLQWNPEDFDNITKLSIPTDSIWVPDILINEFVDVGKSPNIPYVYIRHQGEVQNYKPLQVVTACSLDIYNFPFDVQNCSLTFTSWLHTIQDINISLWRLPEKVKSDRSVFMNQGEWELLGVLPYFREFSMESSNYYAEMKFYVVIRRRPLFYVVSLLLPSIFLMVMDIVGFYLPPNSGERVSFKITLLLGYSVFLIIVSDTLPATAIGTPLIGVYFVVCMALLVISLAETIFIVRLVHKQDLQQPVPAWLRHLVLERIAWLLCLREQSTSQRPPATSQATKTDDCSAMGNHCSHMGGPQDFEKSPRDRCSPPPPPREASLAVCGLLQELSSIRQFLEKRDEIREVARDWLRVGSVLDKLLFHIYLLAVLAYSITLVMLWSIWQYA

hr 5-HT2A ag = hr 5-HT2A ag (Homo sapiens, UniProt P28223); assay: receptor profile (Table S4); type: biochemical
hr 5-HT2A ag, sequence (P28223 whole entry): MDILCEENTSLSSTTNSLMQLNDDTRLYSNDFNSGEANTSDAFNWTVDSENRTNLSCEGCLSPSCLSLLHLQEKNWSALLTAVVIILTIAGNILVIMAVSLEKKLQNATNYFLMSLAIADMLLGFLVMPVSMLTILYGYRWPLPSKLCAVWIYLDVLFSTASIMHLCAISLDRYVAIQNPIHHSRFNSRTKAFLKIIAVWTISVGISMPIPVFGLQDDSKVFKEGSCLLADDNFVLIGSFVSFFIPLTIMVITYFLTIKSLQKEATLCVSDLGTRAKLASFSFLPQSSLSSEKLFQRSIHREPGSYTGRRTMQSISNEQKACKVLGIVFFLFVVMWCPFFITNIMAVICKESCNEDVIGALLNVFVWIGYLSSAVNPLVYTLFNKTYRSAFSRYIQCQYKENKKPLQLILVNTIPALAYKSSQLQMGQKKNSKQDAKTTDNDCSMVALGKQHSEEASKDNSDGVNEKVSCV

hr MC3 = hr MC3 (Homo sapiens, UniProt P41968); assay: receptor profile (Table S4); type: binding
hr MC3, sequence (P41968 whole entry): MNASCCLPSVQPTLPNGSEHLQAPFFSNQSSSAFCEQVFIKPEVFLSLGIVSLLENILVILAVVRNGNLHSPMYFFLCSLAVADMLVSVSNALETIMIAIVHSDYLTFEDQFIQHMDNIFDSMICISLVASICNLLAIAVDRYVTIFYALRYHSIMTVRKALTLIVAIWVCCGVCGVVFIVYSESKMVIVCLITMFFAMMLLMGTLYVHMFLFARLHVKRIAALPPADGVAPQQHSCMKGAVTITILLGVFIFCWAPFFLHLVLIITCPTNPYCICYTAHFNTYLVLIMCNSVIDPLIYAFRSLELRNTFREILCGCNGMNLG

hr MAOA = target: T3, hr MAOA (Homo sapiens, UniProt P21397); assay: receptor profile (Table S4); type: biochemical
T3 sequence (P21397 1-527): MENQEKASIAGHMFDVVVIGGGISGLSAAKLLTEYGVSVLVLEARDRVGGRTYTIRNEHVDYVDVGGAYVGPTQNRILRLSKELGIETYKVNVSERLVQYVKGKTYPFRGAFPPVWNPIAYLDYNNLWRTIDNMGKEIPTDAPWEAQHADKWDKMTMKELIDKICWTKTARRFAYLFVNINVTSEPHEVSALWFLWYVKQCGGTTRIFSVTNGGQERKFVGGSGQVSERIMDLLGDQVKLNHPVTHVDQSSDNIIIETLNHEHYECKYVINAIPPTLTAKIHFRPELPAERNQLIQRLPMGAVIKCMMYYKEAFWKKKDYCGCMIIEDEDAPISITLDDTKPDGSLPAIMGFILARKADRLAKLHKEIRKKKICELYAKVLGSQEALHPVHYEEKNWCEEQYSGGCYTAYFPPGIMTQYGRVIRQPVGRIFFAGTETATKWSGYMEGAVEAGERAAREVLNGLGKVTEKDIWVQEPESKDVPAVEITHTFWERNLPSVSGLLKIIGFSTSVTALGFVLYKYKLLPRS

[3] = male Sprague–Dawley rat, 10 mg/kg PO; dose-normalized
in vivo [4] = conditions: Balb/c, mouse, plasma
Protocol: In Vivo PK Studies in Mice.
(§1) The solution was filtered using a 0.45 m syringe filter before dosing. Two male Balb/c mice were administered 1 intravenously via the lateral tail
(§2) vein at 5 mg/kg with a dose volume of 2.0 mL/kg. 1 was also formulated in a suspension of 0.5%
(§3) methylcellulose with 0.5% Tween 80 (0.5% MC/0.5% Tw80) in water at 2.5 mg/mL. A group of mice
(§4) (n=3) were administered 1 orally via gavage at 20 mg/kg with a dose volume of 8.0 mL/kg.
(§5) The mouse blood samples were centrifuged to separate plasma and the plasma samples were frozen at -
In Vivo PK Studies in Rats.
Two male Wistar rats were administered
(§6) 1 intravenously via the lateral tail vein at 3 mg/kg with a dose volume of 1.0 mL/kg. 1 was also formulated
(§7) in a suspension of 0.5% methylcellulose with 0.5% Tween 80 (0.5% MC/0.5% Tw80) in water at 2.0
(§8) mg/mL. The second group of rats (n=3) were administered 1 orally via gavage at 10 mg/kg in suspension
(§9) with a dose volume of 5.0 mL/kg. Six blood samples of 100 μL each were collected serially from each
(§10) animal via the saphenous vein up to 24 hours after dosing. The rat blood samples were centrifuged to
(§11) separate plasma and the plasma samples were frozen at -20°C until analysis.
In Vivo PK Studies in Dogs.
(§12) The solution was filtered using a 0.45 m syringe filter before dosing. Three male Beagle dogs were administered 1 intravenously via saphenous
(§13) vein at 0.3 mg/kg with a dose volume of 0.1 mL/kg. 1 was also formulated in a suspension of 0.5%
(§14) methylcellulose with 0.5% Tween 80 (0.5%MC/0.5% Tween 80) in water at 1.0 mg/mL. The second
(§15) group of male dogs (n=2) were administered 1- orally via gavage at 1.0 mg/kg with a dose volume of 1.0
(§16) mL/kg. Seven blood samples of 250 µL each were collected serially from each animal via the jugular vein
(§17) The dog blood samples were centrifuged to separate plasma and the plasma
(§18) samples were frozen at -20 °C until analysis.

in vivo [5] = conditions: male, Sprague-Dawley, rat
in vivo [6] = conditions: male, dog, plasma
Protocol: In Vivo PK Studies in Mice.
as §1, §2, §3, §4, §5
In Vivo PK Studies in Rats.
Two male Wistar rats were administered
as §6, §7, §8, §9, §10, §11
In Vivo PK Studies in Dogs.
as §12, §13, §14, §15, §16, §17, §18

hERG = hERG (Homo sapiens, UniProt Q12809); assay: hERG manual patch clamp assay; conditions: read-out: hERG channel IC50
hERG, sequence (Q12809 whole entry): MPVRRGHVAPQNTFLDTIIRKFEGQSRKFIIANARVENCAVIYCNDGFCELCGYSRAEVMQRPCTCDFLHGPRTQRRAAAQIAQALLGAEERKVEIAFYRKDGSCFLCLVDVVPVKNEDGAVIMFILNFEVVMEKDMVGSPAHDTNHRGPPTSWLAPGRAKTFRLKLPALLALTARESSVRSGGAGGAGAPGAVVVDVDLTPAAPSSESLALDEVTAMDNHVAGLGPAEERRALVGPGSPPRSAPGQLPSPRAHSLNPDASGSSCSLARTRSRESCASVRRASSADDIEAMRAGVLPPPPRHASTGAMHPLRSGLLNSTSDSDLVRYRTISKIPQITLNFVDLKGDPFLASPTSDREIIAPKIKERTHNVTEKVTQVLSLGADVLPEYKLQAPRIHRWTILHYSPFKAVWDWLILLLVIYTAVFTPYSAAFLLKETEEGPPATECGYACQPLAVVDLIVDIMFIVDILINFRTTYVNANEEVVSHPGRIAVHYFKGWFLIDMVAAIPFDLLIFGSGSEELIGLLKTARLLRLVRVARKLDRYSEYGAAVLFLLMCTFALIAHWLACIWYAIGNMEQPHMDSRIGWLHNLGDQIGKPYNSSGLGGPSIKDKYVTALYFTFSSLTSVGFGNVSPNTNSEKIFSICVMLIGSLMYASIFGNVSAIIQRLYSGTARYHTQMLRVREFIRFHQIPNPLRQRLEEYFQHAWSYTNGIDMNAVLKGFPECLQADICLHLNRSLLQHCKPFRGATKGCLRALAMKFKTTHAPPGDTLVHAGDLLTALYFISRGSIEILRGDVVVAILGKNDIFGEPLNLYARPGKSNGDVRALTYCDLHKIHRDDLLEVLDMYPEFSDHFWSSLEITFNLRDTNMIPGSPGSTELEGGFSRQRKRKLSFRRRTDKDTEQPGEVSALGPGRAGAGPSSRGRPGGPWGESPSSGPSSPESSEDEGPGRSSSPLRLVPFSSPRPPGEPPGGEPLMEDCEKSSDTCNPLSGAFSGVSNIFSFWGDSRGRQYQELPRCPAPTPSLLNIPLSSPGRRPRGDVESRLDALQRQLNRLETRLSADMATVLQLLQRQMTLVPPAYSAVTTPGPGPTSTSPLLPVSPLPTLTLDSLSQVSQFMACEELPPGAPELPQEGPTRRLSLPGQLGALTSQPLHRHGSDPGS

BSEP = BSEP (Homo sapiens, UniProt O95342); assay: receptor profile (Table S4), first BSEP line
BSEP, sequence (O95342 whole entry): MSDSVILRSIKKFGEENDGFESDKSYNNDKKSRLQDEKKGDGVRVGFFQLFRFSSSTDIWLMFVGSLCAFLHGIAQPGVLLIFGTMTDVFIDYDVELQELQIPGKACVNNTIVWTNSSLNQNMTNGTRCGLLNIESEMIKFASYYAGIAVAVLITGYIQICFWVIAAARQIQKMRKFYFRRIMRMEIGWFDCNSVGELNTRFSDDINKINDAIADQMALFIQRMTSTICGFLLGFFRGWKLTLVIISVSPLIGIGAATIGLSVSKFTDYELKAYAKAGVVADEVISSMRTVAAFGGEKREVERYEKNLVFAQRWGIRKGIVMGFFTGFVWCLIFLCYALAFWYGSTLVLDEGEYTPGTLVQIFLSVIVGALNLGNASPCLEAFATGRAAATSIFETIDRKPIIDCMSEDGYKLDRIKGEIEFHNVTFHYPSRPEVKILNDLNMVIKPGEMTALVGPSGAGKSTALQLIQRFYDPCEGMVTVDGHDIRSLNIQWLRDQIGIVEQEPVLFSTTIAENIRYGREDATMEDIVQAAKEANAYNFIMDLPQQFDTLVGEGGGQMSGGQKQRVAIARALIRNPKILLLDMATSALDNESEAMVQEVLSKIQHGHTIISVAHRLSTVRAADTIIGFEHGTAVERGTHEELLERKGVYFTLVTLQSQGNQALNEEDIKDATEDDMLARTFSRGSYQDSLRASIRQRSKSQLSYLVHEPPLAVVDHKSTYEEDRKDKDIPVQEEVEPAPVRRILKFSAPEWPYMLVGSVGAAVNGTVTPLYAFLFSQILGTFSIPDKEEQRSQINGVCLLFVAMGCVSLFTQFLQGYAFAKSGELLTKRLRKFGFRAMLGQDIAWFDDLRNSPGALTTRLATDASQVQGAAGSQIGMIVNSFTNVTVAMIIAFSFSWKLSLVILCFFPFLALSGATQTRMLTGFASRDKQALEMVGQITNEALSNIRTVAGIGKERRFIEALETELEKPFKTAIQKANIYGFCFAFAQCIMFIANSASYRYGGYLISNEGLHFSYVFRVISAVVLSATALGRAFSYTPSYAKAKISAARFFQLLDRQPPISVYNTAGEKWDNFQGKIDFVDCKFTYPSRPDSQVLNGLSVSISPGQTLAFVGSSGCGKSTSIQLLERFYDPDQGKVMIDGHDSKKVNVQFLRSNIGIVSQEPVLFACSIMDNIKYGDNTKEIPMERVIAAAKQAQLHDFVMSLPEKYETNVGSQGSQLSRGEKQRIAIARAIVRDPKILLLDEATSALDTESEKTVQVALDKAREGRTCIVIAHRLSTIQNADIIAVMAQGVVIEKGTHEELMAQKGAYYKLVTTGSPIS

Question: With `Cc1nc(C)c(C(=O)Nc2ccc(F)c(-c3nc4ncc(-c5ncccc5C)cn4n3)c2)o1` [compound 1, N-(4-Fluoro-3-(6-(3-methylpyridin-2-yl)-[1,2,4]triazolo[1,5-a]pyrimidin-2-yl)phenyl)-2,4-dimethyloxazole-5-carboxamide] as the compound, how does the “therapeutic effect on skin lesions” value (L. major) read?
Answer: comparable to that of liposomal amphotericin B

Question: What about the “AMES, risk of mutagenicity” value (in vitro AMES) of the same compound?
Answer: did not indicate a risk

Question: What about the abundance rat [1] of the same compound?
Answer: +++ (+++ > 75%)

Question: And the abundance human [2]?
Answer: +++ (+++ > 75%)

Question: What about the “substrate of human CYP2D6” value (human CYP2D6) of the same compound?
Answer: not a substrate

Question: And the EC50/IC50 (hr Beta1; hr Beta1)?
Answer: > 30 µM

Question: What about the inhibition at 10 µM (hr Beta1; read-out: % inh/act @ 10 µM) of the same compound?
Answer: 6%

Question: And the inhibition at 30 µM (hr Beta1; read-out: % inh/act @ 30 µM)?
Answer: 10%

Question: And the EC50/IC50 (hr AT1; hr AT1)?
Answer: > 30 µM

Question: And the inhibition at 10 µM (hr AT1; read-out: % inh/act @ 10 µM)?
Answer: 22%

Question: And the inhibition at 30 µM (hr AT1; read-out: % inh/act @ 30 µM)?
Answer: 41%

Question: And the EC50/IC50 (hr CB1 antag; hr CB1 antag)?
Answer: > 30 µM

Question: What about the inhibition at 10 µM (hr CB1 antag; read-out: % inh/act @ 10 µM) of the same compound?
Answer: -47%

Question: What about the inhibition at 30 µM (hr CB1 antag; read-out: % inh/act @ 30 µM) of the same compound?
Answer: -57%

Question: And the EC50/IC50 (hr 5-HT3; hr 5-HT3)?
Answer: > 30 µM

Question: What about the inhibition at 10 µM (hr 5-HT3; read-out: % inh/act @ 10 µM) of the same compound?
Answer: 22%

Question: What about the inhibition at 30 µM (hr 5-HT3; read-out: % inh/act @ 30 µM) of the same compound?
Answer: 19%

Question: What about the EC50/IC50 (hr 5-HT2A ag; hr 5-HT2A ag) of the same compound?
Answer: > 30 µM

Question: And the inhibition at 10 µM (hr 5-HT2A ag; read-out: % inh/act @ 10 µM)?
Answer: -7%

Question: What about the inhibition at 30 µM (hr 5-HT2A ag; read-out: % inh/act @ 30 µM) of the same compound?
Answer: -10%

Question: What about the EC50/IC50 (hr MC3; hr MC3) of the same compound?
Answer: > 30 µM

Question: What about the inhibition at 10 µM (hr MC3; read-out: % inh/act @ 10 µM) of the same compound?
Answer: 10%

Question: And the inhibition at 30 µM (hr MC3; read-out: % inh/act @ 30 µM)?
Answer: 24%

Question: What about the EC50/IC50 (hr MAOA; hr MAOA) of the same compound?
Answer: > 30 µM

Question: And the inhibition at 10 µM (hr MAOA; read-out: % inh/act @ 10 µM)?
Answer: 4%

Question: And the inhibition at 30 µM (hr MAOA; read-out: % inh/act @ 30 µM)?
Answer: 12%

Question: And the “DN AUC PO” value [3]?
Answer: 12 µM·h

Question: And the “DN Cmax PO” value [3]?
Answer: 1000 nM

Question: And the bioavailability (in vivo [4]; po, 20 mg/kg)?
Answer: 46%

Question: And the MRT (in vivo [4]; male, iv, 5 mg/kg)?
Answer: 4.6 h

Question: What about the Vd (in vivo [4]; male, iv, 5 mg/kg) of the same compound?
Answer: 0.63 L/kg

Question: And the clearance (in vivo [4]; male, iv, 5 mg/kg)?
Answer: 2.3 mL/min/kg

Question: What about the half-life (in vivo [4]; male, iv, 5 mg/kg) of the same compound?
Answer: 3.3 h

Question: What about the clearance (in vivo [5]; in vivo, iv, 3 mg/kg) of the same compound?
Answer: 2.1 mL/min/kg

Question: And the MRT (in vivo [5]; plasma, iv, 3 mg/kg)?
Answer: 4.3 h

Question: What about the Vd (in vivo [5]; plasma, iv, 3 mg/kg) of the same compound?
Answer: 0.53 L/kg

Question: And the half-life (in vivo [5]; plasma, iv, 3 mg/kg)?
Answer: 3.8 h

Question: What about the bioavailability (in vivo [5]; plasma, po, 10 mg/kg) of the same compound?
Answer: 67%

Question: What about the bioavailability (in vivo [6]; Beagle, po, 1 mg/kg) of the same compound?
Answer: 44%

Question: What about the MRT (in vivo [6]; beagle, iv, 0.3 mg/kg) of the same compound?
Answer: 3.3 h

Question: And the Vd (in vivo [6]; beagle, iv, 0.3 mg/kg)?
Answer: 2.1 L/kg

Question: And the clearance (in vivo [6]; beagle, iv, 0.3 mg/kg)?
Answer: 11.6 mL/min/kg

Question: What about the half-life (in vivo [6]; beagle, iv, 0.3 mg/kg) of the same compound?
Answer: 3.8 h

Question: What about the IC50 (hERG) of the same compound?
Answer: > 30 µM

Question: And the inhibition at 10 µM (BSEP)?
Answer: 28%

Question: And the inhibition at 30 µM (BSEP)?
Answer: 45%
